Data reported in patent US4849428A, “Cyclic anti-inflammatory derivatives of di-tert-butylphenol compounds, compositions and use” (The Procter & Gamble Company, priority 1987, dated 1989).

Columns and labels:
[1] = test system: Carrageenan Rat Paw Edema; test: Carrageenan Rat Paw Edema Test; type: in vivo, Male Sprague-Dawley rats; settings: for Percent Inhibition at 100 mg/kg dose p.o.: 100 mg/kg p.o. 1 h before carrageenan, paw volume 4 h after carrageenan, relative to control; for ED35: oral, by regression analysis, read-out: ID35
Method: Carrageenan Rat Paw Edema Test
Male Sprague-Dawley rats (Charles River Laboratories) are weighed and food fasted overnight. The animals are then divided into four to six groups of six animals each according to body weights (average about 145 g) so that each group has about the same average body weight (within 10 g).
The following morning animals are dosed with the test compound and then placed in individual cages. For oral dosing, the drug is suspended in 0.5% methyl cellulose with 2% Tween 80, and delivered via stomach tube in a 5 ml volume.
Paw volumes (0 time) are determined on both hind paws with a mercury displacement device equipped with a transducer and digitizer. One hour after dosing the test compound, the animals are placed in a plastic restrainer and 50 ul of a 1% (w/w) carrageenan solution in 0.9% saline is injected into the ventral surface of the left rear paw. Four hours after the carrageenan injection, the paw volumes are again determined.
The results are expressed as percent inhibition of the mean paw volume of the test group relative to the control group. Statistical differences are determined by one way analysis of variance. ID35 values are determined by regression analysis.

[2] = test system: rheumatoid arthritis; test: Oral tablets in patients with rheumatoid arthritis; type: in vivo, patient; settings: tablet, orally two times daily
Method: (§1) Tablets are prepared by conventional methods, such as mixing and direct compaction, formulated as follows: […]

[3] = test system: osteoarthritis; test: Oral tablets in patients with osteoarthritis; type: in vivo, patient; settings: tablet, twice daily
Method: as §1

[4] = test system: rheumatoid arthritis or osteoarthritis; test: Oral capsules in patients with rheumatoid arthritis or osteoarthritis; type: in vivo, patient; settings: capsule, orally once a day
Method: Capsules are prepared by conventional methods, comprised as follows: […]

SMILES	Percent Inhibition at 100 mg/kg dose p.o. [1]	ED35 [1]	reduction of inflammation in rheumatoid arthritis patient [2]	benefit in osteoarthritis patient [3]	reduction of symptomology in rheumatoid arthritis or osteoarthritis patient [4]
C#CCCCC(=O)c1cc(C(C)(C)C)c2c(c1)C(C)(C)CO2 [Compound 8C]	48.8%	2.4 mg/kg	significantly reduces the inflammation	significant benefit	substantially reduces the symptomology
C#CC(O)CCC(=O)c1cc(C(C)(C)C)c2c(c1)C(C)(C)CO2 (stereo not drawn) [Compound 8D]	60.8%	1.6 mg/kg			
C#CCCCC(=O)c1cc(C(C)(C)C)c2c(c1)C(C)(C)C(O)O2 (stereo not drawn) [Compound 13C]	53.2%	12.9 mg/kg			
